We go through 31 compounds from US9802899B2, “Heterocyclic compounds as pesticides” (BAYER CROPSCIENCE AG, priority 2012, dated 2017).

The log P is the decadic logarithm of the partition coefficient of the neutral form, usually between octanol and water. A word on the chromatographic logP: it is a lipophilicity value derived from retention on a column. A lower chromatographic logP goes with lower lipophilicity.

Data set [1] in a line: Determination of the log P values by HPLC (formic acid method). In kind it is physicochemical. The settings on record: reversed-phase column (C 18), acidic range (pH 3.4), 55° C. The procedure:
1) Description of Method for Determination of the Log P Values (Formic Acid Method)
Eluents for determination in the acidic range (pH 3.4):
Eluent A: acetonitrile+1 ml of formic acid/liter. Eluent B: water+0.9 ml of formic acid/liter.
The lambda max values were determined in the maxima of the chromatographic signals using the UV spectra from 200 nm to 400 nm.

A further data set has as its system spider mites. As to the kind of experiment: spider mite test, efficacy in % after 6 days. In kind it is in vivo. The settings on record: 100% = all spider mites killed, 0% = none killed. The procedure: After 6 days, the efficacy in % is determined. 100% means that all of the spider mites have been killed; 0% means that none of the spider mites have been killed.

In another data set the test system is Lucilia cuprina larvae. The data set can be described thus: Lucilia cuprina test (LUCICU). In kind it is in vivo. To be noted: application rate 100 ppm; larvae on treated horse meat; after 2 days. How it is done:
Lucilia cuprina Test (LUCICU)
(§1) Solvent: dimethyl sulphoxide
To produce a suitable preparation of active compound, 10 mg of active compound are mixed with 0.5 ml of dimethyl sulphoxide, and the concentrate is diluted with water to the desired concentration.
Vessels containing horse meat treated with the active compound preparation of the desired concentration are populated with about 20 Lucilia cuprina larvae.
After 2 days, the kill in % is determined 100% means that all of the larvae have been killed; 0% means that none of the larvae have been killed.

The subject of the next data set is Cooperia curticei. As to the kind of experiment: Cooperia curticei test (COOPCU). In kind it is in vivo. To be noted: for pest or weed control at 100 ppm / pest or weed control at 20 ppm: Cooperia curticei, 120 h, read-out: efficacy (kill). How it is done:
Cooperia curticei Test (COOPCU)
as §1
To produce a suitable preparation of active compound, 10 mg of active compound are mixed with 0.5 ml of dimethyl sulphoxide, and the concentrate is diluted with Ringer solution to the desired concentration.
Vessels containing the active compound preparation of the desired concentration are populated with about 40 nematode larvae (Cooperia curticei).
After 5 days, the kill in % is determined 100% means that all of the larvae have been killed; 0% means that none of the larvae have been killed.

The next data set deals with Meloidogyne incognita. The data set can be described thus: Meloidogyne incognita test (MELGIN). In kind it is in vivo. To be noted: application rate 20 ppm, lettuce in sand, after 14 days; for pest or weed control at 20 ppm: Meloidogyne incognita, 336 h, read-out: nematicidal effect (formation of galls). How it is done:
Meloidogyne incognita Test (MELGIN)
Solvent: 125.0 parts by weight of acetone
To prepare a suitable active compound preparation, 1 part by weight of active compound is mixed with the stated amount of solvent and the concentrate is diluted with water to the desired concentration.
Vessels are filled with sand, active compound solution, an egg/larvae suspension of the root-knot nematode (Meloidogyne incognita) and lettuce seeds. The lettuce seeds germinate and the plants develop. On the roots, galls are formed.
After 14 days, the nematicidal effect in % is determined by the formation of galls. 100% means that no galls have been found; 0% means that the number of galls on the treated plants corresponds to the untreated control.

The next data set relates to Phaedon cochleariae. The data set can be described thus: Phaedon cochleariae spray test (PHAECO). To be noted: foliar, 168 h, application rate 500 g/ha, larvae on Chinese cabbage leaf discs, after 7 days, read-out: efficacy. The data set is classed as in vivo. How it is done:
Phaedon cochleariae Spray Test (PHAECO)
Solvents: 78.0 parts by weight of acetone • • 1.5 parts by weight of dimethylformamide
Emulsifier: 0.5 part by weight of alkylaryl polyglycol ether
To produce a suitable preparation of active compound, 1 part by weight of active compound is mixed with the stated amounts of solvents and emulsifier, and the concentrate is diluted with emulsifier-containing water to the desired concentration.
After 7 days, the efficacy in % is determined. 100% means that all of the beetle larvae have been killed; 0% means that none of the beetle larvae have been killed.

The subject of a further data set is Boophilus microplus. As to the kind of experiment: Boophilus microplus test (DIP). The data set is classed as in vivo. To be noted: application rate 100 ppm, after 7 days by laying of fertile eggs, 100% = no fertile eggs. The procedure:
Boophilus microplus Test (DIP)
Test animals: adult engorged Boophilus microplus females of the SP-resistant Parkhurst strain
as §1
10 mg of active compound are dissolved in 0.5 ml of dimethyl sulphoxide. For the purpose of preparing a suitable formulation, the active compound solution is diluted with water to the concentration desired in each case.
This active compound preparation is pipetted into tubes. 8-10 ticks are transferred into a further tube with holes. The tube is immersed into the active compound formulation, and all ticks are completely wetted. After the liquid has run out, the ticks are transferred onto filter discs in plastic dishes and stored in a climate-controlled room.
The activity is assessed after 7 days by laying of fertile eggs. Eggs whose fertility is not visible from the outside are stored in a climate-controlled cabinet until the larvae hatch. An efficacy of 100% means that none of the ticks has laid any fertile eggs.

The mark [2] stands for this setting: reversed-phase HPLC column (C 18).
Setting [3] is: application rate 100 ppm, nematode larvae, after 5 days.

Read-outs that look alike come from different tables or passages of the source.

Consider `O=C(Nc1ccn(-c2ccccc2F)n1)c1ccccc1Br` [Compound I-1-10], for which, in data set [1], the “log P” value amounted to 2.78. Moreover, in the data set on spider mites (application rate of 500 g/ha), the efficacy in % stood at 80%.
Taken in the same sequence, the figures for `O=C(Nc1ccn(-c2ccccc2Cl)n1)c1ccccc1OC(F)(F)F` [Compound I-1-18] were 3.28 and 80%.
As to `O=C(Nc1ccn(-c2ccccc2Cl)n1)c1ccccc1Cl` [Compound I-1-20, 2-Chloro-N-[1-(2-chlorophenyl)-1H-pyrazol-3-yl]benzamide], the chromatographic logP in data set [1] (setting [2]) amounted to 2.8. Besides, the “efficacy (kill)” value in the data set on Lucilia cuprina larvae is 90%. The pest or weed control at 100 ppm in the data set with Cooperia curticei (setting [3]) is 90%. Besides, the pest or weed control at 20 ppm in the data set with Meloidogyne incognita stood at 90%. Further, the pest or weed control at 500 g/ha in the data set on Phaedon cochleariae was determined as 100%.
Regarding `O=C(Nc1ccn(-c2ccccc2Cl)n1)c1c(F)cccc1Cl` [Compound I-1-37], the “log P” value in data set [1] was 2.84. Further, the “efficacy (kill)” value with Lucilia cuprina larvae is reported as 90%.
For the compound `O=C(Nc1ccn(-c2ccccc2Cl)n1)c1ncccc1C(F)(F)F` [Compound I-1-39], the log partition coefficient (log P) in data set [1] amounted to 2.99. The compound also returned an efficacy in the data set on Boophilus microplus of 90%. Moreover, the efficacy in % in the data set on spider mites (application rate of 500 g/ha) is 80%.
Turning to `O=C(Nc1ccn(-c2ccccc2Cl)n1)c1cccnc1Cl` [Compound I-1-43], the log partition coefficient (log P) in data set [1] is 2.19. In addition, the efficacy in % in the data set on spider mites (application rate of 100 g/ha) was 90%.
Consider `O=C(Nc1ccn(-c2ccccc2Br)n1)c1ccccc1Cl` [Compound I-1-51], for which the “log P” value in data set [1] came to 2.83. In addition, in the data set on Lucilia cuprina larvae, the “efficacy (kill)” value was determined as 90%.
For `O=C(Nc1ccn(-c2ccccc2Br)n1)c1ccccc1I` [Compound I-1-53], the “log P” value in data set [1] came out at 3.07. In the data set with Boophilus microplus, this compound had an efficacy of 90%.
As for `Cc1ncccc1C(=O)Nc1ccn(-c2cc(F)ccc2F)n1` [Compound I-1-69], in data set [1], the “log P” value is listed as 1.53. For the same compound, the “efficacy (kill)” value in the data set on Lucilia cuprina larvae came to 90%; in the data set on Cooperia curticei (setting [3]), 80%.
For the compound `O=C(Nc1ccn(-c2c(F)cccc2F)n1)c1ccccc1Br` [Compound I-1-82], the log partition coefficient (log P) in data set [1] is given as 2.59. In the data set on Boophilus microplus, this compound showed an efficacy of 80%. Moreover, in the data set with Lucilia cuprina larvae, the “efficacy (kill)” value worked out at 95%.
`O=C(Nc1ccn(-c2c(F)cccc2F)n1)c1ccccc1I` [Compound I-1-83]: in data set [1], the “log P” value is 2.67. Also, in the data set on Boophilus microplus, the efficacy came to 100%.
In the same order, the values of `O=C(Nc1ccn(-c2c(F)cccc2F)n1)c1cccnc1Br` [Compound I-1-96] are 1.97 and 100%.
In data set [1] (setting [2]), `CCOc1cccc(F)c1-n1ccc(NC(=O)c2ccccc2Cl)n1` [Compound I-1-117, 2-Chloro-N-[1-(2-ethoxy-6-fluorophenyl)-1H-pyrazol-3-yl]benzamide] registered a chromatographic logP of 2.84. In addition, the pest or weed control at 20 ppm in the data set on Meloidogyne incognita turned out to be 100%. In addition, the pest or weed control at 500 g/ha with Phaedon cochleariae was 100%.
Regarding `O=C(Nc1ccn(-c2ncccc2Cl)n1)c1ccccc1Br` [Compound I-1-137], in data set [1], the “log P” value amounted to 2.23. Moreover, the “nematicidal effect (formation of galls)” value in the data set on Meloidogyne incognita is on record as 80%.
For the compound `O=C(Nc1ccn(-c2ncc(F)cc2F)n1)c1c(F)cccc1F` [Compound I-1-146, N-[1-(3,5-Difluoropyridin-2-yl)-1H-pyrazol-3-yl]-2,6-difluorobenzamide], the chromatographic logP in data set [1] (setting [2]) is 2.19. The pest or weed control at 100 ppm in the data set with Cooperia curticei was 100%. In addition, the pest or weed control at 20 ppm with Meloidogyne incognita came to 100%.
With `O=C(Nc1ccn(-c2ccccc2C(F)(F)F)n1)c1ccccc1Br` [Compound I-1-186], the lipophilicity (log P) in data set [1] stood at 2.96. For the same compound, the “efficacy (kill)” value in the data set on Lucilia cuprina larvae is 80%.
As for `O=C(Nc1ccn(-c2cccc(F)c2F)n1)c1ccccc1I` [Compound I-1-190], in data set [1], the “log P” value is on record as 3.09. Moreover, the “nematicidal effect (formation of galls)” value with Meloidogyne incognita is recorded as 90%.
In the case of `Cc1cc(NC(=O)c2cccnc2Br)nn1-c1ccc(F)cc1F` [Compound I-1-210], the log partition coefficient (log P) in data set [1] is given as 2.89. The efficacy in % with spider mites (application rate of 500 g/ha) is reported as 95%.
Taken in the same sequence, the figures for `O=C(Nc1ccn(-c2c(F)cccc2F)n1)c1cccnc1C(F)F` [Compound I-1-248] were 1.99 and 80%.
Taken in the same sequence, the figures for `O=C(c1ccccc1C(F)(F)F)N(CC1CC1)c1ccn(-c2c(F)cccc2F)n1` [Compound I-1-258] were 3.68 and 95%.
In the same order, the values of `CCOCN(C(=O)c1ccccc1C(F)(F)F)c1ccn(-c2c(F)cccc2F)n1` [Compound I-1-262] are 3.40 and 95%.
For the compound `CC#CCN(C(=O)c1ccccc1C(F)(F)F)c1ccn(-c2c(F)cccc2F)n1` [Compound I-1-263], the “log P” value in data set [1] was found to be 3.40. The efficacy in % in the data set on spider mites (application rate of 500 g/ha) was 95%.
Taken in the same sequence, the figures for `O=C(Nc1ccn(-c2ncc(Cl)cc2Cl)n1)c1ccccc1C(F)(F)F` [Compound I-1-428] were 3.05 and 95%.
For the compound `O=C(Nc1ccn(-c2c(F)cc(F)c[n+]2[O-])n1)c1ccccc1C(F)(F)F` [Compound I-1-438, N-[1-(3,5-Difluoro-1-oxidopyridin-2-yl)-1H-pyrazol-3-yl]-2-(trifluoromethyl)benzamide], the chromatographic logP in data set [1] (setting [2]) was 1.69. For the same compound, the pest or weed control at 20 ppm with Meloidogyne incognita amounted to 90%.
In data set [1] (setting [2]), `N#Cc1nccnc1-n1ccc(NC(=O)c2ccccc2C(F)(F)F)n1` [Compound I-1-574, N-[1-(3-Cyanopyrazin-2-yl)-1H-pyrazol-3-yl]-2-(trifluoromethyl)benzamide] yielded a chromatographic logP of 2.47. For the same compound, the pest or weed control at 20 ppm in the data set on Meloidogyne incognita came out at 100%.
The compound `N#Cc1cccnc1-n1ccc(NC(=O)c2ccccc2C(F)(F)F)n1` [Compound I-1-575, N-[1-(3-Cyanopyridin-2-yl)-1H-pyrazol-3-yl]-2-(trifluoromethyl)benzamide] came in with a chromatographic logP in data set [1] (setting [2]) of 2.55. Besides, the pest or weed control at 20 ppm in the data set with Cooperia curticei and with Meloidogyne incognita was 100% in each case.
Regarding `O=C(Nc1ccn(-c2ccc(F)cn2)n1)c1ccccc1C(F)(F)F` [Compound I-1-596], the log partition coefficient (log P) in data set [1] was determined as 2.88. This compound also returned an efficacy in % in the data set on spider mites (application rate of 500 g/ha) of 95%.
On to `O=C(Nc1ccn(-c2ccc(F)cn2)n1)c1c(F)cccc1F` [Compound I-1-598], for which the lipophilicity (log P) in data set [1] was found to be 2.61. For the same compound, the efficacy in % in the data set with spider mites (application rate of 500 g/ha) amounted to 85%.
`N#Cc1c(-c2ccc(F)cc2)ccnc1-n1ccc(NC(=O)c2ccccc2C(F)(F)F)n1` [Compound I-1-641, N-{1-[3-Cyano-4-(4-fluorophenyl)pyridin-2-yl]-1H-pyrazol-3-yl}-2-(trifluoromethyl)benzamide] had a chromatographic logP in data set [1] (setting [2]) of 3.41. Besides, the pest or weed control at 20 ppm with Meloidogyne incognita was determined as 90%.
With `O=C(Nc1cnn(-c2ccccc2Cl)n1)c1ccccc1Cl` [Compound I-2-2], in data set [1], the “log P” value is listed as 2.89. For the same compound, in the data set with Lucilia cuprina larvae, the “efficacy (kill)” value worked out at 80%.
Take `O=C(Nc1cnn(-c2c(F)cccc2F)n1)c1ccccc1C(F)(F)F` [Compound I-2-35, N-[2-(2,6-Difluorophenyl)-2H-1,2,3-triazol-4-yl]-2-(trifluoromethyl)benzamide]: the chromatographic logP in data set [1] was 2.8. Besides, the pest or weed control at 20 ppm in the data set on Cooperia curticei and in the data set with Meloidogyne incognita was 100% each time. Further, the pest or weed control at 500 g/ha in the data set with Phaedon cochleariae came to 100%.
